Data published in patent US20190365843A1, “Antimicrobial Activity of Bioactive Compounds and Their Derivatives” (priority 2018, published 2019).

Tests used:
Pleisiomonas sp. = experiment: Agar diffusion growth inhibition zone, Pleisiomonas sp.; format: cell-based, Pleisiomonas species; details: for zone of inhibition at 100 mg/mL / zone of inhibition at 150 mg/mL: Pleisiomonas sp., 6 mm = no activity
Description: (§1) Among the bacterial agents tested Gram positive and Gram negative bacterial groups represented by Staphylococcus aureus and Enterococcus species and pathogenic members of Enterobacteriaceae, Vibronaceae, Aeromonadaceae, Pseudomonadaceae were tested. Freshly sub-cultured bacterial strains were inoculated into peptone water and incubated for 4 hours at 37° C. and adjusted to a turbidity of 0.5 (Gram Negative Bacilli), 1 (Gram Positive Cocci) and 4 (Pus cells, GNB, & few Budding yeast cells) Mc Farland standards (10^8 CFU/ml) respectively.
(§2) The different bioactive compounds and their derivatives were dissolved and diluted with solvents (DMSO), number of subsequent dilutions was performed to obtain different concentrations of the bioactive compounds and their derivatives. (Working Concentrations).
(§3) Agar well diffusion method is widely used to evaluate the antimicrobial activity of plants or other synthetic products. The suspension (microbial inoculum) was used to inoculate into Muller Hinton Agar Petri plates by lawn culture. Well (diameter 6 mm) were punched in the agar by sterile borer and filled with 50 μl of dissolved extracts. Plates were incubated in incubator at 37° C. for 24 hours and measured the growth inhibition zone diameters in mm compared with that of control (DMSO) showing no growth.
(§4) The bioactive compounds were tested with desired concentrations in 6 mm filter paper discs (Whatman, no. 3) were impregnated with 10 μL of each of the different dilutions. The discs were allowed to remain at room temperature until complete diluent evaporation and kept under refrigeration until ready to be used. 10 μL of diluents used to products were used as control. Tests were performed by Agar disk-diffusion testing method, which is the official method used in many clinical microbiology laboratories for routine antimicrobial susceptibility testing.
(§5) Similar to the procedure used in Agar well diffusion method, the suspension (microbial inoculum) was used to inoculate into Muller Hinton Agar Petri plates by lawn culture. Then, filter paper discs (about 6 mm in diameter), containing the test compound at a desired concentration, were placed on the agar surface. The Petri dishes were incubated under suitable incubation conditions.
(§6) Bioactive compounds showing zone of inhibition beyond the size of 6 mm are considered to be having an anti-microbial activity.

Salmonella typhimurium = experiment: Agar diffusion growth inhibition zone, Salmonella typhimurium; format: cell-based; details: Salmonella enterica, 6 mm = no activity
Description: as §1, §2, §3, §4, §5, §6

Klebsiella sp. = experiment: Agar diffusion growth inhibition zone, Klebsiella sp.; format: cell-based, Klebsiella species; details: 6 mm = no activity
Description: as §1, §2, §3, §4, §5, §6

Candida abicans = experiment: Agar diffusion growth inhibition zone, Candida abicans; format: cell-based, Candida albicans; details: 6 mm = no activity
Description: as §1, §2, §3, §4, §5, §6

Enterococcus sp. = experiment: Agar diffusion growth inhibition zone, Enterococcus sp.; format: cell-based, Enterococcus species; details: 6 mm = no activity
Description: as §1, §2, §3, §4, §5, §6

Pseudomonas sp. = experiment: Agar diffusion growth inhibition zone, Pseudomonas sp.; format: cell-based, Pseudomonas species; details: Pseudomonas
Description: (§7) Agar well diffusion method is widely used to evaluate the antimicrobial activity of plants or other synthetic products. The suspension (microbial inoculum) was used to inoculate into Muller Hinton Agar Petri plates by lawn culture. Well (diameter 6 mm) were punched in the agar by sterile borer and filled with 50 μl of dissolved extracts. Plates were incubated in incubator at 37° C. for 24 hours and measured the growth inhibition zone diameters in mm compared with that of control (DMSO) showing no growth. The antimicrobial agent diffuses in the agar medium and inhibits the growth of the microbial strain tested (Valgas et al., (2016) Methods for in vitro evaluating antimicrobial activity: A review. Journal of Pharmaceutical Analysis. 6(2):71-9).
(§8) Similar to the procedure used in Agar well diffusion method, the suspension (microbial inoculum) was used to inoculate into Muller Hinton Agar Petri plates by lawn culture. Then, filter paper discs (about 6 mm in diameter), containing the test compound at a desired concentration, were placed on the agar surface. The Petri dishes were incubated under suitable incubation conditions. Generally, antimicrobial agent diffuses into the agar and inhibits germination and growth of the test microorganism and then the diameters of inhibition growth zones are measured (Valgas et al., (2007) Screening methods to determine antibacterial activity of natural products. Brazilian Journal of Microbiology. 38:369-80; Balouiri M et al., (2016) Methods for in vitro evaluating antimicrobial activity: A review. Journal of Pharmaceutical Analysis. 6(2):71-9).

Shigella sp. = experiment: Agar diffusion growth inhibition zone, Shigella sp.; format: cell-based, Shigella species; details: Shigella
Description: as §7, §8

Aeromonas sp. = experiment: Agar diffusion growth inhibition zone, Aeromonas sp.; format: cell-based, Aeromonas species; details: Aeromonas sp., 6 mm = no activity
Description: as §1, §2, §3, §4, §5, §6

ETEC = experiment: Agar diffusion growth inhibition zone, ETEC; format: cell-based, Enterotoxigenic E. coli; details: for inhibition of growth: ETEC; for zone of inhibition at 100000 µg/disc / zone of inhibition at 150000 µg/disc: Escherichia coli
Description: as §7, §8

Citrobacter sp. = experiment: Agar diffusion growth inhibition zone, Citrobacter sp.; format: cell-based, Citrobacter species; details: 6 mm = no activity
Description: as §1, §2, §3, §4, §5, §6

EAEC = experiment: Agar diffusion growth inhibition zone, EAEC; format: cell-based, Enteroaggregative E. coli; details: for zone of inhibition at 100 mg/mL / zone of inhibition at 150 mg/mL: Escherichia coli, 6 mm = no activity
Description: as §1, §2, §3, §4, §5, §6

Vibrio cholera = experiment: Agar diffusion growth inhibition zone, Vibrio cholera; format: cell-based, Vibrio cholerae; details: Vibrio cholerae
Description: as §7, §8

E. coli ATCC 25922 = experiment: Agar diffusion growth inhibition zone, E. coli ATCC 25922; format: cell-based; details: Escherichia coli, 6 mm = no activity; for zone of inhibition at 100 mg/mL: ATCC25922, 100 mg; for zone of inhibition at 150 mg/mL: ATCC25922, 150 mg
Description: as §1, §2, §3, §4, §5, §6

Proteus sp. = experiment: Agar diffusion growth inhibition zone, Proteus sp.; format: cell-based, Proteus species; details: for zone of inhibition at 150 mg/mL: Proteus sp., 6 mm = no activity
Description: as §1, §2, §3, §4, §5, §6

S. aureus = experiment: Agar diffusion growth inhibition zone, S. aureus; format: cell-based, Staphylococcus aureus; details: Staphylococcus aureus, 6 mm = no activity
Description: as §1, §2, §3, §4, §5, §6

O=C(/C=C/c1ccc(O)cc1)CC(=O)/C=C/c1ccc(O)cc1 [compound 3, Bis- demethoxycurcumin]
significantly inhibited the growth: inhibition of growth (ETEC)
9 mm: zone of inhibition at 100 mg/mL (Pleisiomonas sp.) | zone of inhibition at 150 mg/mL (Pleisiomonas sp.) | zone of inhibition at 100000 µg/disc (ETEC) | zone of inhibition at 150000 µg/disc (ETEC)
7 mm: zone of inhibition at 150 mg/mL (Proteus sp.) | zone of inhibition (Proteus sp.; Proteus species, at both concentrations of 100 mg and 150 mg)
6 mm: zone of inhibition at 100 mg/mL (Salmonella typhimurium) | zone of inhibition at 150 mg/mL (Salmonella typhimurium) | zone of inhibition at 100 mg/mL (Klebsiella sp.) | zone of inhibition at 150 mg/mL (Klebsiella sp.) | zone of inhibition at 100 mg/mL (Candida abicans) | zone of inhibition at 150 mg/mL (Candida abicans) | zone of inhibition at 100 mg/mL (Enterococcus sp.) | zone of inhibition at 150 mg/mL (Enterococcus sp.) | zone of inhibition at 100000 µg/disc (Pseudomonas sp.) | zone of inhibition at 150000 µg/disc (Pseudomonas sp.) | zone of inhibition at 100000 µg/disc (Shigella sp.) | zone of inhibition at 150000 µg/disc (Shigella sp.) | zone of inhibition at 100 mg/mL (Aeromonas sp.) | zone of inhibition at 150 mg/mL (Aeromonas sp.) | zone of inhibition at 100 mg/mL (Citrobacter sp.) | zone of inhibition at 150 mg/mL (Citrobacter sp.) | zone of inhibition at 100 mg/mL (EAEC) | zone of inhibition at 150 mg/mL (EAEC) | zone of inhibition at 100000 µg/disc (Vibrio cholera) | zone of inhibition at 150000 µg/disc (Vibrio cholera) | zone of inhibition at 100 mg/mL (E. coli ATCC 25922) | zone of inhibition at 150 mg/mL (E. coli ATCC 25922) | zone of inhibition at 100 mg/mL (S. aureus) | zone of inhibition at 150 mg/mL (S. aureus)
inhibited: inhibition of growth (Pleisiomonas sp.; Plesiomonas species)

COc1cc(/C=C/C(=O)CC(=O)/C=C/c2ccc(OC(C)=O)c(OC)c2)ccc1OC(C)=O [compound 4, O,O′- Diacetylcurcumin]
9 mm: zone of inhibition at 100000 µg/disc (ETEC) | zone of inhibition at 150000 µg/disc (ETEC)
significantly inhibited the growth: inhibition of growth (ETEC)
6 mm: zone of inhibition at 100 mg/mL (Pleisiomonas sp.) | zone of inhibition at 150 mg/mL (Pleisiomonas sp.) | zone of inhibition at 100 mg/mL (Salmonella typhimurium) | zone of inhibition at 150 mg/mL (Salmonella typhimurium) | zone of inhibition at 100 mg/mL (Klebsiella sp.) | zone of inhibition at 150 mg/mL (Klebsiella sp.) | zone of inhibition at 100 mg/mL (Candida abicans) | zone of inhibition at 150 mg/mL (Candida abicans) | zone of inhibition at 100 mg/mL (Enterococcus sp.) | zone of inhibition at 150 mg/mL (Enterococcus sp.) | zone of inhibition at 100000 µg/disc (Pseudomonas sp.) | zone of inhibition at 150000 µg/disc (Pseudomonas sp.) | zone of inhibition at 100000 µg/disc (Shigella sp.) | zone of inhibition at 150000 µg/disc (Shigella sp.) | zone of inhibition at 100 mg/mL (Aeromonas sp.) | zone of inhibition at 150 mg/mL (Aeromonas sp.) | zone of inhibition at 100 mg/mL (Citrobacter sp.) | zone of inhibition at 150 mg/mL (Citrobacter sp.) | zone of inhibition at 100 mg/mL (EAEC) | zone of inhibition at 150 mg/mL (EAEC) | zone of inhibition at 100000 µg/disc (Vibrio cholera) | zone of inhibition at 150000 µg/disc (Vibrio cholera) | zone of inhibition at 100 mg/mL (E. coli ATCC 25922) | zone of inhibition at 150 mg/mL (E. coli ATCC 25922) | zone of inhibition at 150 mg/mL (Proteus sp.) | zone of inhibition at 100 mg/mL (S. aureus) | zone of inhibition at 150 mg/mL (S. aureus)

COc1cc(/C=C/C(=O)COC(=O)/C=C/c2ccc(O)c(OC)c2)ccc1O [compound 5, Calebin-A]
significantly inhibited the growth: inhibition of growth (ETEC)
11 mm: zone of inhibition at 100000 µg/disc (ETEC) | zone of inhibition at 150000 µg/disc (ETEC)
inhibited: inhibition of growth (EAEC)
6 mm: zone of inhibition at 100 mg/mL (Pleisiomonas sp.) | zone of inhibition at 150 mg/mL (Pleisiomonas sp.) | zone of inhibition at 100 mg/mL (Salmonella typhimurium) | zone of inhibition at 150 mg/mL (Salmonella typhimurium) | zone of inhibition at 100 mg/mL (Klebsiella sp.) | zone of inhibition at 150 mg/mL (Klebsiella sp.) | zone of inhibition at 100 mg/mL (Candida abicans) | zone of inhibition at 150 mg/mL (Candida abicans) | zone of inhibition at 100 mg/mL (Enterococcus sp.) | zone of inhibition at 150 mg/mL (Enterococcus sp.) | zone of inhibition at 100000 µg/disc (Pseudomonas sp.) | zone of inhibition at 150000 µg/disc (Pseudomonas sp.) | zone of inhibition at 100000 µg/disc (Shigella sp.) | zone of inhibition at 150000 µg/disc (Shigella sp.) | zone of inhibition at 100 mg/mL (Aeromonas sp.) | zone of inhibition at 150 mg/mL (Aeromonas sp.) | zone of inhibition at 100 mg/mL (Citrobacter sp.) | zone of inhibition at 150 mg/mL (Citrobacter sp.) | zone of inhibition at 100000 µg/disc (Vibrio cholera) | zone of inhibition at 150000 µg/disc (Vibrio cholera) | zone of inhibition at 100 mg/mL (E. coli ATCC 25922) | zone of inhibition at 150 mg/mL (E. coli ATCC 25922) | zone of inhibition at 150 mg/mL (Proteus sp.) | zone of inhibition at 100 mg/mL (S. aureus) | zone of inhibition at 150 mg/mL (S. aureus)
7 mm: zone of inhibition at 100 mg/mL (EAEC) | zone of inhibition at 150 mg/mL (EAEC)

COc1cc(/C=C/C(=O)COC(=O)/C=C/c2ccc(OC(C)=O)c(OC)c2)ccc1OC(C)=O [compound 6, O,O′- Diacetylcalebin-A]
7 mm: zone of inhibition at 100 mg/mL (EAEC) | zone of inhibition at 150 mg/mL (EAEC)
significantly inhibited the growth: inhibition of growth (ETEC)
6 mm: zone of inhibition at 100 mg/mL (Pleisiomonas sp.) | zone of inhibition at 150 mg/mL (Pleisiomonas sp.) | zone of inhibition at 100 mg/mL (Salmonella typhimurium) | zone of inhibition at 150 mg/mL (Salmonella typhimurium) | zone of inhibition at 100 mg/mL (Klebsiella sp.) | zone of inhibition at 150 mg/mL (Klebsiella sp.) | zone of inhibition at 100 mg/mL (Candida abicans) | zone of inhibition at 150 mg/mL (Candida abicans) | zone of inhibition at 100 mg/mL (Enterococcus sp.) | zone of inhibition at 150 mg/mL (Enterococcus sp.) | zone of inhibition at 100000 µg/disc (Pseudomonas sp.) | zone of inhibition at 150000 µg/disc (Pseudomonas sp.) | zone of inhibition at 100000 µg/disc (Shigella sp.) | zone of inhibition at 150000 µg/disc (Shigella sp.) | zone of inhibition at 100 mg/mL (Aeromonas sp.) | zone of inhibition at 150 mg/mL (Aeromonas sp.) | zone of inhibition at 100 mg/mL (Citrobacter sp.) | zone of inhibition at 150 mg/mL (Citrobacter sp.) | zone of inhibition at 100000 µg/disc (Vibrio cholera) | zone of inhibition at 150000 µg/disc (Vibrio cholera) | zone of inhibition at 100 mg/mL (E. coli ATCC 25922) | zone of inhibition at 150 mg/mL (E. coli ATCC 25922) | zone of inhibition at 150 mg/mL (Proteus sp.) | zone of inhibition at 100 mg/mL (S. aureus) | zone of inhibition at 150 mg/mL (S. aureus)
8 mm: zone of inhibition at 100000 µg/disc (ETEC) | zone of inhibition at 150000 µg/disc (ETEC)
inhibited: inhibition of growth (EAEC)
